In patent US20230278972A1, “SUBSTITUTED HALOALKYL SULFONANILIDE HERBICIDES” (FMC Corporation, priority 2020, published 2023):

Tests used:
Assay type in all cases: in vivo
kochia (Bassia scoparia) [1] = assay: Test A postemergence, kochia; conditions: Postemergence, 0 to 100 scale (0 no effect, 100 complete control); for Kochia plant response rating: visual injury vs untreated controls after approx. 10 days
From the text: (§1) Seeds of plant species selected from barnyardgrass (Echinochloa crus-galli), kochia (Bassia scoparia), ragweed (common ragweed, Ambrosia artemisiifolia), Ryegrass, Italian (Italian ryegrass, Lolium multiflorum), Foxtail, Giant (giant foxtail, Setaria faberi), and pigweed (Amaranthus retroflexus) were planted into a blend of loam soil and sand and treated preemergence with a directed soil spray using test chemicals formulated in a non-phytotoxic solvent mixture which included a surfactant. At the same time, plants selected from these weed species and also wheat (Triticum aestivum), corn (Zea mays), blackgrass (Alopecurus myosuroides), and galium (catchweed bedstraw, Galium aparine) were planted in pots containing the same blend of loam soil and sand and treated with postemergence applications of test chemicals formulated in the same manner. Plants ranged in height from 2 to 10 cm and were in the one- to two-leaf stage for the postemergence treatment. […] A dash (-) response means no test result.

[2] = system: galium (catchweed bedstraw, Galium aparine); assay: Test A postemergence, galium; conditions: Postemergence, 0 to 100 scale (0 no effect, 100 complete control); for Galium plant response rating: visual injury vs untreated controls after approx. 10 days
From the text: as §1

[3] = system: barnyardgrass (Echinochloa crus-galli); assay: Test A postemergence, barnyardgrass; conditions: Postemergence, 0 to 100 scale (0 no effect, 100 complete control); for Barnyardgrass plant response rating: visual injury vs untreated controls after approx. 10 days
From the text: as §1

[4] = system: ragweed (common ragweed, Ambrosia artemisiifolia); assay: Test A postemergence, ragweed; conditions: Postemergence, 0 to 100 scale (0 no effect, 100 complete control); for Ragweed plant response rating: visual injury vs untreated controls after approx. 10 days
From the text: as §1

[5] = system: Ryegrass, Italian (Italian ryegrass, Lolium multiflorum); assay: Test A postemergence, Ryegrass, Italian; conditions: Postemergence, 0 to 100 scale (0 no effect, 100 complete control); for Ryegrass, Italian plant response rating: visual injury vs untreated controls after approx. 10 days
From the text: as §1

[6] = system: Foxtail, Giant (giant foxtail, Setaria faberi); assay: Test A postemergence, Foxtail, Giant; conditions: Postemergence, 0 to 100 scale (0 no effect, 100 complete control); for Foxtail, Giant plant response rating: visual injury vs untreated controls after approx. 10 days
From the text: as §1

[7] = system: Foxtail, Giant (giant foxtail, Setaria faberi); assay: Test A preemergence, Foxtail, Giant; conditions: Preemergence; for Foxtail, Giant plant response rating: visual injury on 0 to 100 scale (0 no effect, 100 complete control), approximately 10 days; for Plant response rating, Foxtail, Giant: 0 to 100 scale (0 no effect, 100 complete control)
From the text: as §1

[8] = system: pigweed (Amaranthus retroflexus); assay: Test A postemergence, pigweed; conditions: Postemergence, 0 to 100 scale (0 no effect, 100 complete control); for Pigweed plant response rating: visual injury vs untreated controls after approx. 10 days
From the text: as §1

[9] = system: ragweed (common ragweed, Ambrosia artemisiifolia); assay: Test A preemergence, ragweed; conditions: Preemergence; for Ragweed plant response rating: visual injury on 0 to 100 scale (0 no effect, 100 complete control), approximately 10 days; for Plant response rating, Ragweed: 0 to 100 scale (0 no effect, 100 complete control)
From the text: as §1

[10] = system: wheat (Triticum aestivum); assay: Test A postemergence, wheat; conditions: Postemergence, 0 to 100 scale (0 no effect, 100 complete control); for Wheat plant response rating: visual injury vs untreated controls after approx. 10 days
From the text: as §1

[11] = system: blackgrass (Alopecurus myosuroides); assay: Test A postemergence, blackgrass; conditions: Postemergence, 0 to 100 scale (0 no effect, 100 complete control); for Blackgrass plant response rating: visual injury vs untreated controls after approx. 10 days
From the text: as §1

corn (Zea mays) = assay: Test A postemergence, corn; conditions: Postemergence, 0 to 100 scale (0 no effect, 100 complete control); for Corn plant response rating: visual injury vs untreated controls after approx. 10 days
From the text: as §1

[12] = system: Ryegrass, Italian (Italian ryegrass, Lolium multiflorum); assay: Test A preemergence, Ryegrass, Italian; conditions: Preemergence; for Ryegrass, Italian plant response rating: visual injury on 0 to 100 scale (0 no effect, 100 complete control), approximately 10 days; for Plant response rating, Ryegrass, Italian: 0 to 100 scale (0 no effect, 100 complete control)
From the text: as §1

[13] = system: barnyardgrass (Echinochloa crus-galli); assay: Test A preemergence, barnyardgrass; conditions: Preemergence; for Barnyardgrass plant response rating: visual injury on 0 to 100 scale (0 no effect, 100 complete control), approximately 10 days; for Plant response rating, Barnyardgrass: 0 to 100 scale (0 no effect, 100 complete control)
From the text: as §1

kochia (Bassia scoparia) [14] = assay: Test A preemergence, kochia; conditions: Preemergence; for Kochia plant response rating: visual injury on 0 to 100 scale (0 no effect, 100 complete control), approximately 10 days; for Plant response rating, Kochia: 0 to 100 scale (0 no effect, 100 complete control)
From the text: as §1

[15] = 500 g ai/ha, visual injury approx. 10 days
[16] = 125 g ai/ha, visual injury, approx. 10 days

| SMILES | Plant response rating, Kochia (kochia (Bassia scoparia) [1]; 125 g ai/ha) | Kochia plant response rating (kochia (Bassia scoparia) [1]; 500 g ai/ha) | Plant response rating, Galium ([2]; 125 g ai/ha) | Galium plant response rating ([2]; 500 g ai/ha) | Plant response rating, Barnyardgrass ([3]; 125 g ai/ha) | Barnyardgrass plant response rating ([3]; 500 g ai/ha) | Plant response rating, Ragweed ([4]; 125 g ai/ha) | Ragweed plant response rating ([4]; 500 g ai/ha) | Plant response rating, Ryegrass, Italian ([5]; 125 g ai/ha) | Ryegrass, Italian plant response rating ([5]; 500 g ai/ha) | Plant response rating, Foxtail, Giant ([6]; 125 g ai/ha) | Foxtail, Giant plant response rating ([6]; 500 g ai/ha) | Foxtail, Giant plant response rating ([7]; 125 g ai/ha) | Plant response rating, Foxtail, Giant ([7]; 500 g ai/ha) | Plant response rating, Pigweed ([8]; 125 g ai/ha) | Pigweed plant response rating ([8]; 500 g ai/ha) | Ragweed plant response rating ([9]; 125 g ai/ha) | Plant response rating, Wheat ([10]; 125 g ai/ha) | Plant response rating, Blackgrass ([11]; 125 g ai/ha) | Plant response rating, Corn (corn (Zea mays); 125 g ai/ha) | other results |
| --- | --- | --- | --- | --- | --- | --- | --- | --- | --- | --- | --- | --- | --- | --- | --- | --- | --- | --- | --- | --- | --- |
| Cc1cc(C)c(C2=NOC3CCCC23)cc1NS(=O)(=O)C(F)(F)F (stereo not drawn) [Compound 166] | 50 | 80 | 80 | 90 | 90 | 90 | 40 | 80 | 90 | 90 | 50 | 60 | 80 | 100 | 40 | 90 | 20 | 70 | 10 | 10 | Plant response rating, Ragweed ([9]; 500 g ai/ha): 80; Wheat plant response rating ([10]; 500 g ai/ha): 70; Blackgrass plant response rating ([11]; 500 g ai/ha): 20; Corn plant response rating (corn (Zea mays); 500 g ai/ha): 50; Ryegrass, Italian plant response rating ([12]; 125 g ai/ha): 70; Plant response rating, Ryegrass, Italian ([12]; 500 g ai/ha): 100; Barnyardgrass plant response rating ([13]; 125 g ai/ha): 100; Plant response rating, Barnyardgrass ([13]; 500 g ai/ha): 100; Kochia plant response rating (kochia (Bassia scoparia) [14]; 125 g ai/ha): 90; Plant response rating, Kochia (kochia (Bassia scoparia) [14]; 500 g ai/ha): 100 |
| Cc1cc(C(F)(F)F)c(NS(=O)(=O)C(F)(F)F)cc1C(=O)N1CCCCC1 [Compound 165] | 10 | 60 | 80 | 90 | 0 | 30 | 0 | 60 | 0 | 30 | 0 | 0 | 80 | 90 | 60 | 90 | 50 | 0 | 0 | 0 | Plant response rating, Ragweed ([9]; 500 g ai/ha): 100; Wheat plant response rating ([10]; 500 g ai/ha): 0; Blackgrass plant response rating ([11]; 500 g ai/ha): 10; Corn plant response rating (corn (Zea mays); 500 g ai/ha): 0; Ryegrass, Italian plant response rating ([12]; 125 g ai/ha): 50; Plant response rating, Ryegrass, Italian ([12]; 500 g ai/ha): 70; Barnyardgrass plant response rating ([13]; 125 g ai/ha): 20; Plant response rating, Barnyardgrass ([13]; 500 g ai/ha): 30; Kochia plant response rating (kochia (Bassia scoparia) [14]; 125 g ai/ha): 90; Plant response rating, Kochia (kochia (Bassia scoparia) [14]; 500 g ai/ha): 100 |
| COC1CCCN(C(=O)c2cc(NS(=O)(=O)C(F)(F)F)c(Cl)cc2C)C1 (stereo not drawn) [Compound 146] | 40 | 50 | 90 | 90 | 40 | 80 | 60 | 90 | 30 | 70 | 20 | 90 | 100 | 100 | 50 | 80 | 60 | 50 | 0 | 10 | Plant response rating, Ragweed ([9]; 500 g ai/ha): 70; Wheat plant response rating ([10]; 500 g ai/ha): 60; Blackgrass plant response rating ([11]; 500 g ai/ha): 20; Corn plant response rating (corn (Zea mays); 500 g ai/ha): 20; Ryegrass, Italian plant response rating ([12]; 125 g ai/ha): 90; Plant response rating, Ryegrass, Italian ([12]; 500 g ai/ha): 100; Barnyardgrass plant response rating ([13]; 125 g ai/ha): 90; Plant response rating, Barnyardgrass ([13]; 500 g ai/ha): 100; Kochia plant response rating (kochia (Bassia scoparia) [14]; 125 g ai/ha): 80; Plant response rating, Kochia (kochia (Bassia scoparia) [14]; 500 g ai/ha): 80 |
| COC(=O)N(c1cc(N2CCC3(CCCCC3)C2=O)c(C)cc1C)S(=O)(=O)C(F)(F)F [Compound 266] | 0 |  | 30 |  | 0 |  | 0 |  | 0 |  | 0 |  |  |  | 0 |  |  | 0 | 30 | 0 | Plant response rating, Kochia (kochia (Bassia scoparia) [1]; [15]): 10; Plant response rating, Galium [2, 15]: 90; Plant response rating, Barnyardgrass [3, 15]: 20; Plant response rating, Ragweed [4, 15]: 10; Plant response rating, Ryegrass, Italian [5, 15]: 0; Plant response rating, Foxtail, Giant [6, 15]: 0; Plant response rating, Foxtail, Giant [7, 16]: 0; Foxtail, Giant plant response rating ([7]; 500 g ai/ha): 20; Plant response rating, Pigweed [8, 15]: 0; Plant response rating, Ragweed [9, 16]: 0; Ragweed plant response rating ([9]; 500 g ai/ha): 0; Plant response rating, Wheat [10, 15]: 0; Plant response rating, Blackgrass [11, 15]: 0; Plant response rating, Corn (corn (Zea mays); [15]): 0; Plant response rating, Ryegrass, Italian [12, 16]: 0; Ryegrass, Italian plant response rating ([12]; 500 g ai/ha): 0; Plant response rating, Barnyardgrass [13, 16]: 0; Barnyardgrass plant response rating ([13]; 500 g ai/ha): 40; Plant response rating, Kochia (kochia (Bassia scoparia) [14]; [16]): 0; Kochia plant response rating (kochia (Bassia scoparia) [14]; 500 g ai/ha): 0 |
